Here are results for 9 compounds from PubChem BioAssay (NCI).

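A five-concentration, 48-hour dose response in 96-well plates underlies each endpoint, interpolated linearly between surrounding concentrations. Abbreviation: GI50, concentration required for 50% inhibition of growth. TGI: total growth inhibition.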 A value given as a limit tells only on which side of the number the result lay.

Among the test systems are KM12 colon; MALME-3M melanoma; 786-0 renal; NCI-H226 lung; SF-268 CNS; SNB-19 CNS; SF-539 CNS; UO-31 renal; NCI-H460 lung; HL-60(TB) leukemia.
Holding throughout (experiment): inhibition of tumour cell growth, NCI panel, 48 h

For `CSC(=S)Nc1cc(C)cc(C)n1`, the TGI with KM12 colon, in the assay with MALME-3M melanoma, in the assay with 786-0 renal, in the assay on NCI-H226 lung, with SF-268 CNS and in the assay with SNB-19 CNS was above 31.6 µM each time. In addition, the TGI was above 100 µM with SF-539 CNS, above 31.6 µM with UO-31 renal, above 31.6 µM in the assay with NCI-H460 lung and above 31.6 µM in the assay on HL-60(TB) leukemia.

On to `O=S(=O)(NC1CCCCC1)c1ccc2c(c1)OCCOCCOCCOCCO2`, for which the TGI in the assay on KM12 colon, in the assay with MALME-3M melanoma, with 786-0 renal, in the assay with NCI-H226 lung, in the assay with SF-268 CNS and with SNB-19 CNS was above 100 µM each time. The TGI in the assay on SF-539 CNS, in the assay on UO-31 renal, with NCI-H460 lung and in the assay on HL-60(TB) leukemia was above 100 µM each time.

`C=C1C(=O)O[C@H]2[C@H]1CC/C(COC(=O)CCCCCC(=O)OC/C1=C/CC[C@@]3(C)O[C@H]3[C@H]3OC(=O)C(=C)[C@@H]3CC1)=C\CC[C@@]1(C)O[C@@H]21`: the GI50 in the assay on KM12 colon was 2.17 µM; with MALME-3M melanoma it was 2090 nM; in the assay on 786-0 renal, 1.09 µM; in the assay with NCI-H226 lung it was 2020 nM; in the assay on SF-268 CNS, 3.44 µM; in the assay with SNB-19 CNS, 4.09 µM. Besides, the GI50 in the assay on SF-539 CNS was 1670 nM; with UO-31 renal, 1250 nM; in the assay on NCI-H460 lung it was 3210 nM; in the assay on HL-60(TB) leukemia it was 694 nM. Also, the TGI in the assay with KM12 colon amounted to 5.4 µM; with MALME-3M melanoma, 5.08 µM; in the assay with 786-0 renal, 2.49 µM; in the assay on NCI-H226 lung, 5.53 µM; in the assay on SF-268 CNS, 14.8 µM; with SNB-19 CNS, 19.5 µM. Moreover, the TGI came to 3.58 µM with SF-539 CNS, 2.86 µM in the assay with UO-31 renal, 12.2 µM with NCI-H460 lung and 3.66 µM with HL-60(TB) leukemia.

With `[2H]C([2H])([2H])NC(=O)c1nnc(NC(=O)C2CC2)cc1Nc1cccc(-c2ncn(C)n2)c1OC`, the GI50 with KM12 colon was 32.1 µM; with MALME-3M melanoma it was 98000 nM; with 786-0 renal, 28.4 µM; with NCI-H226 lung, above 100000 nM; in the assay with SF-268 CNS, 45.7 µM; in the assay on SNB-19 CNS it was above 100 µM. Besides, the GI50 in the assay on SF-539 CNS was 61100 nM; in the assay with UO-31 renal, 5930 nM; in the assay on NCI-H460 lung it was above 100000 nM; with HL-60(TB) leukemia, 14000 nM. The TGI in the assay on KM12 colon, with MALME-3M melanoma, in the assay with 786-0 renal, in the assay with NCI-H226 lung, in the assay with SF-268 CNS and with SNB-19 CNS was above 100 µM in each case. Moreover, the TGI in the assay with SF-539 CNS is above 100 µM; with UO-31 renal it was 60.4 µM; with NCI-H460 lung it was above 100 µM; in the assay on HL-60(TB) leukemia, 82.6 µM.

Consider `O=C1c2cc(Cc3ccccc3)c(=O)c(Cc3ccccc3)cc2C(=O)c2cc(Cc3ccccc3)c(=O)c(Cc3ccccc3)cc21`, for which the TGI with KM12 colon, with MALME-3M melanoma, with 786-0 renal, in the assay on NCI-H226 lung, in the assay on SF-268 CNS and in the assay on SNB-19 CNS was above 100 µM throughout. Besides, the TGI in the assay on SF-539 CNS, with UO-31 renal, in the assay with NCI-H460 lung and with HL-60(TB) leukemia was above 100 µM each time.

Consider `COc1cc(CNc2nc3c(N)cc(C(F)(F)F)cc3nc2-c2ccccc2)cc(OC)c1OC`, for which the TGI in the assay on KM12 colon, with MALME-3M melanoma, with 786-0 renal, with NCI-H226 lung, in the assay on SF-268 CNS and in the assay with SNB-19 CNS was above 100 µM in each case. Further, the TGI was above 100 µM in the assay on SF-539 CNS, 85.5 µM with UO-31 renal, above 100 µM in the assay with NCI-H460 lung and above 100 µM in the assay with HL-60(TB) leukemia. Moreover, the GI50 was above 100 µM in the assay on SNB-19 CNS, above 100000 nM with SF-539 CNS and above 100000 nM in the assay with HL-60(TB) leukemia.

For the compound `CCO/C=C1\N=C(c2ccc(Cl)c(Cl)c2)OC1=O`, the TGI in the assay with KM12 colon, with MALME-3M melanoma, with 786-0 renal, in the assay with NCI-H226 lung, in the assay with SF-268 CNS and in the assay with SNB-19 CNS was above 100 µM each time. Also, the TGI in the assay with SF-539 CNS, with UO-31 renal, in the assay with NCI-H460 lung and with HL-60(TB) leukemia was above 100 µM throughout.

For the compound `CCCCNNC(=O)c1ccc(Br)cc1`, the GI50 in the assay with KM12 colon is 7.26 µM; with MALME-3M melanoma it was 1700 nM; in the assay with 786-0 renal, 11.8 µM; in the assay on NCI-H226 lung, 9860 nM; with SF-268 CNS, 8.41 µM; in the assay on SNB-19 CNS, 11.2 µM. Besides, the GI50 in the assay with SF-539 CNS was 1760 nM; in the assay with UO-31 renal it was 2360 nM; with NCI-H460 lung, 2970 nM; in the assay with HL-60(TB) leukemia, 2240 nM. Moreover, the TGI with KM12 colon, in the assay on MALME-3M melanoma, with 786-0 renal, in the assay on NCI-H226 lung, with SF-268 CNS and in the assay with SNB-19 CNS was above 50 µM throughout. For the same compound, the TGI in the assay with SF-539 CNS is above 50 µM; in the assay on UO-31 renal, above 35.1 µM; with NCI-H460 lung, above 50 µM; in the assay with HL-60(TB) leukemia, above 50 µM.

As to `CCC(=O)N1C/C(=C/c2ccc(Cl)cc2)C(=O)/C(=C/c2ccc(Cl)cc2)C1`, the GI50 with KM12 colon is 0.25 µM; with MALME-3M melanoma it was 2060 nM; in the assay on 786-0 renal, 0.332 µM; in the assay on NCI-H226 lung, 1150 nM; in the assay with SF-268 CNS, 1.17 µM; in the assay on SNB-19 CNS, 1.02 µM. Moreover, the GI50 in the assay on SF-539 CNS is 690 nM; with UO-31 renal it was 1150 nM; with NCI-H460 lung, 1120 nM; in the assay with HL-60(TB) leukemia, 1250 nM. Moreover, the TGI turned out to be 0.665 µM in the assay on KM12 colon; 4.08 µM in the assay on MALME-3M melanoma; 1.22 µM with 786-0 renal; 3.5 µM with NCI-H226 lung; 3.16 µM in the assay on SF-268 CNS; 2.45 µM with SNB-19 CNS. Further, the TGI in the assay on SF-539 CNS came to 1.91 µM; with UO-31 renal, 2.5 µM; with NCI-H460 lung, 3.56 µM; with HL-60(TB) leukemia it was 5.03 µM.
